The text below walks through data of patent US9410100B2, “Tritylated ethers” (ANGUS Chemical Company, priority 2012, dated 2016).

Data set [1] can be described thus: Solubility studies of functionalized tritylated phenol ethers in solvents. Format: physicochemical. As for the experimental part: The solubility properties of functionalized tritylated phenol ethers were determined by mixing 0.1 gram samples of sample in 0.9 grams of solvent. The mixtures were warmed at 60° C. for a few minutes to make homogeneous solutions. The solutions were cooled back to room temperature, and then they were placed into a freezer at −10° C. The solutions were checked daily to see if crystallization had occurred.

By melting point is commonly meant the temperature of the solid-liquid transition. For `OCCCCCCOc1ccc(C(c2ccccc2)(c2ccccc2)c2ccccc2)cc1OCCCCCCO` [Ex. 4, 6,6′-((4-trityl-1,2-phenylene)bis(oxy))bis(hexan-1-ol)], the melting point was in the range of 81 to 84 °C. Also, the “Solubility at RT” value in data set [1] (10 wt % in 1-Octanol, cooled to room temperature) is “soluble”. Further, the “Solubility at 60 C.” value in data set [1] (10 wt % in 1-Octanol, warmed at 60 C) is “soluble”. Also, the “Solubility at RT” value in data set [1] (10 wt % in AROMATIC 200, cooled to room temperature) is on record as “insoluble”. Further, the “Solubility at 60 C.” value in data set [1] (10 wt % in AROMATIC 200, warmed at 60 C) was “insoluble”. Further, the “Solubility at RT” value in data set [1] (10 wt % in DMAc, cooled to room temperature) is recorded as “soluble”. In addition, the “Solubility at 60 C.” value in data set [1] (10 wt % in DMAc, warmed at 60 C) was “soluble”. In data set [1] (10 wt % in DPGME, cooled to room temperature), the “Solubility at RT” value is listed as “soluble”. Further, the “Solubility at 60 C.” value in data set [1] (10 wt % in DPGME, warmed at 60 C) is given as “soluble”. Moreover, in data set [1] (10 wt % in NMP, cooled to room temperature), the “Solubility at RT” value is listed as “soluble”. Further, the “Solubility at 60 C.” value in data set [1] (10 wt % in NMP, warmed at 60 C) is on record as “soluble”. Moreover, the “Solubility at RT” value in data set [1] (10 wt % in Tetralin, cooled to room temperature) was “insoluble”. The “Solubility at 60 C.” value in data set [1] (10 wt % in Tetralin, warmed at 60 C) is given as “soluble”.

`OCCCCCCOc1ccc(C(c2ccccc2)(c2ccccc2)c2ccccc2)cc1` [compound 1, 6-(4-Tritylphenoxy)hexan-1-ol] displayed a melting point of 158 to 161 °C.
